Test systems include CCRF-CEM; OVCAR-4; EKVX; HOP-92; SNB-75; MOLT-4; IGROV-1; OVCAR-3; MDA-MB-435; SW-620; A549; LOX IMVI; OVCAR-5; T47D; SNB-19; HCC 2998; M14; HOP-62; NCI-H522; OVCAR-8; DU-145; NCI/ADR-RES; SF-268; UACC-62; CAKI-1; UACC-257; SK-MEL-28; HCT-15; SR; MCF7; ACHN; HL-60; HT-29; PC-3; HCT-116; MDA-N; SK-MEL-5; SK-OV-3; SF-295; RPMI-8226; NCI-H460; COLO 205; MDA-MB-231; UO-31; U-251; Malme-3M; TK-10; K562.

What all share (assay): NCI anticancer screen, dose series, 48 h

The structures appear in SMILES notation. Where “and” joins values, the source holds several entries; their conditions need not be identical. Identical values can stand only once.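 Exposure lasted 48 hours, with cells grown in 96-well plates and compounds tested at five concentrations. The concentration for 50% growth inhibition is given as GI50.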 Calls of active or inactive are those of the source. Cut-off read from the data, not from the text of the source: active = GI50 up to about 1.1 µM and inactive = higher.

These results are taken from ChEMBL document CHEMBL1201862, “PubChem BioAssay data set” (2004).

As to `O=P(O)(O)OC1C(OP(=O)(O)O)C(OP(=O)(O)O)C(OP(=O)(O)O)C(OP(=O)(O)O)C1OP(=O)(O)O` (stereo unspecified), the GI50 in the assay with CCRF-CEM is > 995 µM (inactive); in the assay on OVCAR-4, > 875 µM (inactive); in the assay on EKVX, > 560 µM (inactive); in the assay on HOP-92 it was > 923 µM (inactive).
For the molecule `COC12C=CC(CC1)C(C)(C)C2O` (stereo unspecified), the GI50 in the assay with SNB-75 is 87.5 µM (inactive) and 52.7 µM (inactive).
As to `Nc1ccc(OCC(O)N2C(=O)c3ccccc3C2=O)cc1` (stereo unspecified), the GI50 in the assay on MOLT-4 is > 100 µM (inactive); in the assay with IGROV-1, > 100 µM (inactive); in the assay on OVCAR-3 it was > 100 µM (inactive); with MDA-MB-435, > 100 µM (inactive); in the assay on SW-620, 76.9 µM (inactive); in the assay with A549, > 100 µM (inactive). Further, the GI50 with CCRF-CEM, in the assay with LOX IMVI, in the assay with OVCAR-5, in the assay with T47D, with SNB-19 and with HCC 2998 was > 100 µM (inactive) each time. Further, the GI50 in the assay with M14, with HOP-62, with NCI-H522, in the assay with OVCAR-4, in the assay with OVCAR-8 and in the assay with DU-145 was > 100 µM (inactive) throughout. Also, the GI50 is > 100 µM (inactive) with NCI/ADR-RES; > 100 µM (inactive) in the assay on SF-268; > 100 µM (inactive) with UACC-62; < 0.01 µM (active) with CAKI-1; > 100 µM (inactive) in the assay with UACC-257; > 100 µM (inactive) in the assay on EKVX. The GI50 was > 100 µM (inactive) in the assay on SK-MEL-28; over 100 µM in the assay on HCT-15; > 10 µM (inactive) in the assay on SR; > 100 µM (inactive) with MCF7; > 100 µM (inactive) in the assay on ACHN; > 100 µM (inactive) in the assay with HL-60. Moreover, the GI50 in the assay with HT-29, with PC-3, in the assay with HCT-116, in the assay with MDA-N, in the assay with SK-MEL-5 and in the assay on SK-OV-3 was > 100 µM (inactive) throughout. The GI50 with SF-295, in the assay with RPMI-8226, in the assay on NCI-H460, with COLO 205, with MDA-MB-231 and with UO-31 was > 100 µM (inactive) each time. In addition, the GI50 with U-251, with Malme-3M, in the assay on TK-10 and in the assay on K562 was > 100 µM (inactive) each time.
